Experimental findings from the Kinase Knowledgebase extract (Sharma et al. 2016) are described below.

Experiment [1] addresses EGFR (mouse) (UniProt P00533). As to conditions: nih3t3.
The target of experiment [2] is EGFR (mouse) (UniProt P00533). As to conditions: nih3t3/her14.
Experiment [3] addresses EGFR (mouse) (UniProt P00533). As to conditions: nih3t3/neu.

Broadly, the IC50 is the concentration that gives 50% inhibition. A high value points to lower potency. With `COc1cc2ncnc(Nc3cccc(Cl)c3)c2cc1OC.Cn1nnc2c(C(N)=O)ncn2c1=O`, the results for the half-inhibitory concentration (IC50) with EGFR (mouse) [1], in the experiment with EGFR (mouse) [2] and with EGFR (mouse) [3] were 39.4 µM, 6.2 µM and 1.1 µM, respectively.
With `CC(=O)N(C)N=Nc1ccc2ncnc(Nc3cccc(C)c3)c2c1`, the results for the half-inhibitory concentration (IC50) with EGFR (mouse) [2] and with EGFR (mouse) [3] were 149 µM and 60.6 µM, respectively.
Turning to `Cn1nnc2c(C(N)=O)ncn2c1=O`, the values for the IC50 in the experiment with EGFR (mouse) [1], with EGFR (mouse) [2] and in the experiment with EGFR (mouse) [3] were 214 µM, 207 µM and 210 µM, respectively.
Turning to `COc1cc2ncnc(Nc3cccc(Cl)c3)c2cc1OC`, the figures for the 50% inhibitory concentration (IC50) in the experiment with EGFR (mouse) [2] and with EGFR (mouse) [3] were 9.8 µM and 4 µM, respectively.
On to `CC(=O)OCN(C)N=Nc1ccc2ncnc(Nc3cccc(Br)c3)c2c1`, for which the concentration for half-maximal inhibition (IC50) amounted to 3.4 µM with EGFR (mouse) [2] and 0.21 µM with EGFR (mouse) [3].
As for `Nc1ccc2ncnc(Nc3cccc(Br)c3)c2c1`, the concentration for half-maximal inhibition (IC50) was 10.4 µM with EGFR (mouse) [2] and 0.42 µM in the experiment with EGFR (mouse) [3].
On to `CNN=Nc1ccc2ncnc(Nc3cccc(C)c3)c2c1`, for which the IC50 with EGFR (mouse) [2] amounted to 28.9 µM; in the experiment with EGFR (mouse) [3], 16.5 µM.
As for `CN(CO)N=Nc1ccc2ncnc(Nc3cccc(Br)c3)c2c1`, the results for the IC50 with EGFR (mouse) [2] and with EGFR (mouse) [3] were 2.1 µM and 0.09 µM, respectively.
For `CNN=Nc1ccc2ncnc(Nc3cccc(Br)c3)c2c1`, the IC50 with EGFR (mouse) [2] is 8.8 µM; with EGFR (mouse) [3] it was 0.09 µM.
